Key:
WEE2 = target: T1, WEE2 (Homo sapiens, UniProt P0C1S8); assay: KINOMEscan at 1 μM, WEE2; type: binding; conditions: 1000 nM, read-out: Percent Control
T1 construct: purchased Eurofins DiscoverX KINOMEscan
Excerpt: (§1) Supplement cells-12-00287-s001.zip/File S2. KinomeScan data for the CAMKK2 probe and negative control.xlsx, sheet "SGC-CAMKK2-1N" | column: Percent Control

RIPK2 = target: T2, RIPK2 (Homo sapiens, UniProt O43353); assay: KINOMEscan at 1 μM, RIPK2; type: binding; conditions: 1000 nM, read-out: Percent Control
T2 construct: purchased Eurofins DiscoverX KINOMEscan
Excerpt: as §1

PIK3C2G = target: T3, PIK3C2G (Homo sapiens, UniProt O75747); assay: KINOMEscan binding assay at 1 μM, PIK3C2G; conditions: Compound Concentration 1000 nM; read-out: Percent Control
T3 construct: purchased Eurofins DiscoverX KINOMEscan
Excerpt: as §1

MAP4K4 = target: T4, MAP4K4 (Homo sapiens, UniProt O95819); assay: KINOMEscan 1 μM, MAP4K4; type: binding; conditions: 1000 nM; Entrez MAP4K4; read-out: Percent Control
T4 construct: purchased Eurofins DiscoverX KINOMEscan
Excerpt: Supplement cells-12-00287-s001.zip/File S2. KinomeScan data for the CAMKK2 probe and negative control.xlsx, sheet "SGC-CAMKK2-1" | column: Percent Control

[1] = target: T5, NLuc-CAMKK2 (kinase domain) in HEK293 cells (Homo sapiens, UniProt Q96RR4); assay: CAMKK2 NanoBRET in-cell target engagement assay; type: cell-based; conditions: HEK293 cells transiently transfected with NLuc-CAMKK2
T5 construct: this assay utilizes a nanoluciferase (NL) fused to the kinase domain of CAMKK2; expressed in transfected cells; host or cells: HEK293
T5 sequence (Q96RR4 165-446 limits assumed): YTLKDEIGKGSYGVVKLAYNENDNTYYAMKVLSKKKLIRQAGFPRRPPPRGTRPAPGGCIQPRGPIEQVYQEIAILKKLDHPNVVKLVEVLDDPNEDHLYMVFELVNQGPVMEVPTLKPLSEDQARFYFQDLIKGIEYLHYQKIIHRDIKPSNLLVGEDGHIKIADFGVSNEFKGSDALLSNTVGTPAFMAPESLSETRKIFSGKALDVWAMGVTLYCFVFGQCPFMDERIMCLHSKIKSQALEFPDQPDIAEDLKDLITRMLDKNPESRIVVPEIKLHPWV
Method: CAMKK2 NanoBRET assay: To quantify the cellular activity of these inhibitors we developed a CAMKK2 NanoBRET target engagement assay [51, 52]. Briefly this assay utilizes a nanoluciferase (NL) fused to the kinase domain of CAMKK2. This NL kinase fusion is then transiently transfected into HEK293 cells and after 24 h, tracer is added to the cells. When the tracer and the NL-CAMKK2 fusion come into proximity they create a BRET signal that can be competed in a dose-dependent manner by the addition of cell-penetrant CAMKK2 inhibitors.
To evaluate this, we developed a NanoBRET in-cell target engagement assay. For this assay, the CAMKK2 kinase domain fused with a Nanoluciferase (NLuc) tag is transiently transfected into HEK293 cells. After 24 h, a heterobifunctional molecule that consists of an inhibitor that binds to CAMKK2 linked to a BODIPY dye is added to the cells. When the inhibitor–dye hybrid binds to the kinase, the proximity to the NLuc fused to CAMKK2 creates a BRET signal. This signal can then be competed away in a dose-dependent fashion with free inhibitor.

T3 sequence (O75747 whole entry): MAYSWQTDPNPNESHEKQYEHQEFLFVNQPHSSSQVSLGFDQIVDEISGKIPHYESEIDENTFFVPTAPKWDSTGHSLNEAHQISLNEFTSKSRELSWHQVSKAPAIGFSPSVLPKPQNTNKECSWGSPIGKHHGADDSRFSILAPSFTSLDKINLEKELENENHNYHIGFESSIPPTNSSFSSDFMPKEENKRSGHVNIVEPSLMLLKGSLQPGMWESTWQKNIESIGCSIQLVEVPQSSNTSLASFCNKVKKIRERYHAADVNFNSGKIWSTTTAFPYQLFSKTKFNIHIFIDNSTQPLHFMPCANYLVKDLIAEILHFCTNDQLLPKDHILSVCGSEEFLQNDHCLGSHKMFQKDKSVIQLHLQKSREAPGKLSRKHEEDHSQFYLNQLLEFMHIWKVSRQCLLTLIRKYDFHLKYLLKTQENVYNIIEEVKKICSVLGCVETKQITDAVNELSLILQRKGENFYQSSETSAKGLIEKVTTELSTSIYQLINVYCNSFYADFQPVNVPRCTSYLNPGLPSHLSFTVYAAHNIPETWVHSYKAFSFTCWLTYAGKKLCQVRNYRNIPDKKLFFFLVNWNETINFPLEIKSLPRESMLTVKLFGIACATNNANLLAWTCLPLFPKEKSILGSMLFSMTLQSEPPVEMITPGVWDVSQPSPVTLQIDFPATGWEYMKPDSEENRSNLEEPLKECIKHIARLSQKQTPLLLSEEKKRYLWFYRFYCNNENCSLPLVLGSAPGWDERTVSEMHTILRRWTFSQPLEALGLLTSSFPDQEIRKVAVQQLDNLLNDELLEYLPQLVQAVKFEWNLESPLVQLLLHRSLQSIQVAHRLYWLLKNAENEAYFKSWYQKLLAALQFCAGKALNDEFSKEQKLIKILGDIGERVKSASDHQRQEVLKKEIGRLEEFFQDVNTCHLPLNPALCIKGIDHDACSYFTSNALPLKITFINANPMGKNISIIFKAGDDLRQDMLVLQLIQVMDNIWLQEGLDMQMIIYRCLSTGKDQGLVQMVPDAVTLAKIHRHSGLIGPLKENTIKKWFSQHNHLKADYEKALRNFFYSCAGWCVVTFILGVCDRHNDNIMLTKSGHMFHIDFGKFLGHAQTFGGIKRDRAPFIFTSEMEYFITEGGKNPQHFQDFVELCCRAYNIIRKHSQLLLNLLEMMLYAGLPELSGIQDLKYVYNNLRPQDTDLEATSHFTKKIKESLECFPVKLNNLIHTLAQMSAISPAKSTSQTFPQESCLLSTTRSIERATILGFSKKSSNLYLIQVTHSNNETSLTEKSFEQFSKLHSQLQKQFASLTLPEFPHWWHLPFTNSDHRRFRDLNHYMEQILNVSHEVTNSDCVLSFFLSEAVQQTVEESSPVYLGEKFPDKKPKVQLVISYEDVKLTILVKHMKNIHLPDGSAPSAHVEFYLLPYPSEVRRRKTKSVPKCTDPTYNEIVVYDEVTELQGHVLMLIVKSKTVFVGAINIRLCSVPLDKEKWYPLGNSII
T1 sequence (P0C1S8 whole entry): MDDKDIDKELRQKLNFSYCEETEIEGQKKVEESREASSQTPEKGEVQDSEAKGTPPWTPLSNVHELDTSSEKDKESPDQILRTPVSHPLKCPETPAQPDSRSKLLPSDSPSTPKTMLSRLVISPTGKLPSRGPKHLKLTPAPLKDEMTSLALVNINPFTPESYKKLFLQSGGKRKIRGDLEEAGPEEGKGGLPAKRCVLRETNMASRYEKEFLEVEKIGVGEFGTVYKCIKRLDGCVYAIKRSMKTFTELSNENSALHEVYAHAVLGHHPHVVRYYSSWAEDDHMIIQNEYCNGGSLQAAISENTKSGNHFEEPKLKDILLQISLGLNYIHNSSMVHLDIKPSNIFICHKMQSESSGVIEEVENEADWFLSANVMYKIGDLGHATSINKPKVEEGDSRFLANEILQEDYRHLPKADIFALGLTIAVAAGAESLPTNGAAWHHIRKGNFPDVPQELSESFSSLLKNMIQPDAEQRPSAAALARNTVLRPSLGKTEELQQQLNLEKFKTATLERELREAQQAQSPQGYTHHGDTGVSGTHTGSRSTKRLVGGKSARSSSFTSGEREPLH
T2 sequence (O43353 whole entry): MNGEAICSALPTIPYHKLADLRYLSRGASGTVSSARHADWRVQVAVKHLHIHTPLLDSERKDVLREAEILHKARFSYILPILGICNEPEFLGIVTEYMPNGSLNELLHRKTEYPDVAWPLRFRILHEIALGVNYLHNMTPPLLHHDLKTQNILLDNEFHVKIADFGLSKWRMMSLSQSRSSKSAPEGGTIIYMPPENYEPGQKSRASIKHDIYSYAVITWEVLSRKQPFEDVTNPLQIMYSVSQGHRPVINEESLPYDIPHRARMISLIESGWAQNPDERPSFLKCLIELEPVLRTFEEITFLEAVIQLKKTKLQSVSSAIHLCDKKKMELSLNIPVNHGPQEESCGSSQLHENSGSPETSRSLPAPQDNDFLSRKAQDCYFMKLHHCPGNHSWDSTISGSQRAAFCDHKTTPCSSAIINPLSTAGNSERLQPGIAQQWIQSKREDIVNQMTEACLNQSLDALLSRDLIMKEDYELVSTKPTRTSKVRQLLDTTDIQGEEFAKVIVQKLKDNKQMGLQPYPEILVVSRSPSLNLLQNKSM
T4 sequence (O95819 whole entry): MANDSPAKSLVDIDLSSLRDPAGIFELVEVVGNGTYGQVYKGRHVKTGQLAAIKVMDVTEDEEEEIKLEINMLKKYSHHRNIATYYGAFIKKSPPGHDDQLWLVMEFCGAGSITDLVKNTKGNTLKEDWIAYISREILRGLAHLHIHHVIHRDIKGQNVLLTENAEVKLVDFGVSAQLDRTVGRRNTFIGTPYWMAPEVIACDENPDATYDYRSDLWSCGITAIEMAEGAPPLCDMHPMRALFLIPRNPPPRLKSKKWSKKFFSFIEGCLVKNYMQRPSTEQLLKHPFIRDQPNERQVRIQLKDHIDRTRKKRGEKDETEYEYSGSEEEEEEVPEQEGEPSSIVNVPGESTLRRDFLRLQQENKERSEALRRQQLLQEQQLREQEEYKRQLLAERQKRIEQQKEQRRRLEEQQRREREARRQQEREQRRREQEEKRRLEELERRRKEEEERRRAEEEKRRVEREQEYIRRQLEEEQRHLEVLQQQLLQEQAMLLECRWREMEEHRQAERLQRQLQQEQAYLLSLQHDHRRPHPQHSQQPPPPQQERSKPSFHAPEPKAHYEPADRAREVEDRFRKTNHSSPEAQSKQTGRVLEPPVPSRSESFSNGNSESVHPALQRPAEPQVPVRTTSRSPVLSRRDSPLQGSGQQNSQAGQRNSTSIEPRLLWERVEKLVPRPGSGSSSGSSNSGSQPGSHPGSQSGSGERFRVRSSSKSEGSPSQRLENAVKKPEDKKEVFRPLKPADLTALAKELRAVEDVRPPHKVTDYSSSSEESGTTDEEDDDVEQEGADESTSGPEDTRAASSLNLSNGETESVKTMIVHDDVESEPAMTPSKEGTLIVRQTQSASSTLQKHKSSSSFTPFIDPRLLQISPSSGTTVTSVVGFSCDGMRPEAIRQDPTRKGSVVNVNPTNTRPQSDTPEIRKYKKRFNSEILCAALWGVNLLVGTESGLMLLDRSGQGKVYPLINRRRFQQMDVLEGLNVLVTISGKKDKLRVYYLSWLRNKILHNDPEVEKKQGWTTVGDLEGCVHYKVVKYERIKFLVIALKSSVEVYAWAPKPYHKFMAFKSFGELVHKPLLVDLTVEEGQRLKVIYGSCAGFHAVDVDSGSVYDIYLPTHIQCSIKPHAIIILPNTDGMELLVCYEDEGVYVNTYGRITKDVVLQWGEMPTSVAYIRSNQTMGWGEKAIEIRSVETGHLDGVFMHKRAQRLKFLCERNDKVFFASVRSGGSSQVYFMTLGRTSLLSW

With O=C(O)c1ccc(-c2coc3ncc(-c4ccccc4)cc23)cc1Cl [SGC-CAMKK2-1N (UNC-YL-83)] the remaining binding at 1 µM (WEE2) was 93%, the remaining binding at 1 µM (RIPK2) was 99% and the remaining binding at 1 µM (PIK3C2G) was 100%.
Work on Cc1cccc(-c2cnc3occ(-c4ccc(C(=O)O)c(C5CCCC5)c4)c3c2)c1 [SGC-CAMKK2-1 (YL-36)] yielded a remaining binding at 1 µM (MAP4K4) of 85%.
With Cc1cccc(-c2cnc3occ(-c4ccc(C(=O)O)c(C5CCCC5)c4)c3c2)c1 [Compound 5] the IC50 [1] was 270 nM.

From PMC9856672, “SGC-CAMKK2-1: A Chemical Probe for CAMKK2” (Cells, 2023)
